{"source": "patent US8871735B2", "about": "“Methods and compositions for providing cardiac protection” (University of Medicine and Dentistry of New Jersey, priority 2008, dated 2014)", "key": {"[1]": {"system": "C57Bl/6 mice, chronic ISO infusion", "assay": "Chronic ISO infusion heart failure model", "type": "in vivo, mouse", "text": "ISO with or without AC5 inhibitors were chronically infused with osmotic mini-pump implanted subcutaneously at indicated doses for 1 week in c57Bl/6 mice. Mice were then subjected to echocardiography (a) and the hearts were removed and subjected to pathological examinations such as myocardial apoptosis (b) and fibrosis (c). n=4-8.\nIn C57Bl/6 mice, ISO with or without AC5 inhibitors or metoprolol were chronically infused with an osmotic mini-pump at the indicated doses for 1 week. Mice were then subjected to echocardiography (a) and heart tissue were subjected to a myocardial apoptosis assay (b). *, p<0.01 vs vehicle. #, p<0.05 vs vehicle. .dagger., p<0.01 vs ISO. .dagger-dbl., p<0.05 vs ISO. n=4-15. […] Comparisons between multiple groups were made using ANOVA with post-hoc tests.\nTenofovir diphosphate (PMPA-PP), zidovudine monophosphate (MP), zidovudine diphosphate (PP), zidovudine triphosphate (TP), famciclovir penciclovir and valaciclovir were purchased from Moravek. Formycin A (FMA) and Formycin B (FMB) were purchased from Berry and Associates. All other reagents were from Sigma unless specified. Long-term infusion of isoproterenol (Sigma, St. Louis, Mo.) was performed for 7 days at a dose of 60 mg/kg/d with or without AC5 inhibitors by using a miniosmotic pump (ALZET model 2001, DURECT Corp, Cupertino, Calif.). Control mice received vehicle in pumps. Pumps were removed 24 hours before biochemical and physiological studies. Experiments were performed in 3- to 5-month-old male C57Bl/6, and in AC5Tg transgenic mice. This study was approved by the Animal Care and Use Committee at New Jersey Medical School.\n(§1) Mice were anesthetized with 2.5% tribromoethanol (0.010 to 0.015 mL per gram of body weight) injected intraperitoneally, and echocardiography was performed with ultrasonography (ACUSON Sequoia C256, Siemens Medical Solutions, Malvern, Pa.). For acute injection of isoproterenol, forskolin and milrinon, a PE-10 catheter was inserted into the right jugular vein, and drugs were injected at the rate of 1 μl/s. cAMP accumulation assay in H9C2 cells, a cardiac myoblast cell line, was examined as previously described."}, "[2]": {"system": "cardiac myocytes", "assay": "ISO-stimulated cAMP accumulation in cultured cardiac myocytes", "type": "cell-based, mouse", "conditions": "10 μM compound"}, "[3]": {"system": "cardiac myocytes", "assay": "ISO-induced apoptosis in cultured cardiac myocytes (DNA fragmentation ELISA)", "type": "cell-based", "conditions": "100 μM ISO, 48 h", "procedure": "Cultured cardiac myocytes were incubated with 100 μM ISO in the presence or absence of AC5 inhibitors at the indicated concentrations for 48 h."}, "[4]": {"conditions": "cited from earlier work"}, "[5]": {"system": "AC6", "assay": "Forskolin-stimulated cAMP production in heart membrane preparations from AC6Tg", "type": "biochemical, mouse", "conditions": "forskolin 50 μM"}, "[6]": {"target": "type 5 AC (Homo sapiens, UniProt O95622)", "sequence (O95622 whole entry)": "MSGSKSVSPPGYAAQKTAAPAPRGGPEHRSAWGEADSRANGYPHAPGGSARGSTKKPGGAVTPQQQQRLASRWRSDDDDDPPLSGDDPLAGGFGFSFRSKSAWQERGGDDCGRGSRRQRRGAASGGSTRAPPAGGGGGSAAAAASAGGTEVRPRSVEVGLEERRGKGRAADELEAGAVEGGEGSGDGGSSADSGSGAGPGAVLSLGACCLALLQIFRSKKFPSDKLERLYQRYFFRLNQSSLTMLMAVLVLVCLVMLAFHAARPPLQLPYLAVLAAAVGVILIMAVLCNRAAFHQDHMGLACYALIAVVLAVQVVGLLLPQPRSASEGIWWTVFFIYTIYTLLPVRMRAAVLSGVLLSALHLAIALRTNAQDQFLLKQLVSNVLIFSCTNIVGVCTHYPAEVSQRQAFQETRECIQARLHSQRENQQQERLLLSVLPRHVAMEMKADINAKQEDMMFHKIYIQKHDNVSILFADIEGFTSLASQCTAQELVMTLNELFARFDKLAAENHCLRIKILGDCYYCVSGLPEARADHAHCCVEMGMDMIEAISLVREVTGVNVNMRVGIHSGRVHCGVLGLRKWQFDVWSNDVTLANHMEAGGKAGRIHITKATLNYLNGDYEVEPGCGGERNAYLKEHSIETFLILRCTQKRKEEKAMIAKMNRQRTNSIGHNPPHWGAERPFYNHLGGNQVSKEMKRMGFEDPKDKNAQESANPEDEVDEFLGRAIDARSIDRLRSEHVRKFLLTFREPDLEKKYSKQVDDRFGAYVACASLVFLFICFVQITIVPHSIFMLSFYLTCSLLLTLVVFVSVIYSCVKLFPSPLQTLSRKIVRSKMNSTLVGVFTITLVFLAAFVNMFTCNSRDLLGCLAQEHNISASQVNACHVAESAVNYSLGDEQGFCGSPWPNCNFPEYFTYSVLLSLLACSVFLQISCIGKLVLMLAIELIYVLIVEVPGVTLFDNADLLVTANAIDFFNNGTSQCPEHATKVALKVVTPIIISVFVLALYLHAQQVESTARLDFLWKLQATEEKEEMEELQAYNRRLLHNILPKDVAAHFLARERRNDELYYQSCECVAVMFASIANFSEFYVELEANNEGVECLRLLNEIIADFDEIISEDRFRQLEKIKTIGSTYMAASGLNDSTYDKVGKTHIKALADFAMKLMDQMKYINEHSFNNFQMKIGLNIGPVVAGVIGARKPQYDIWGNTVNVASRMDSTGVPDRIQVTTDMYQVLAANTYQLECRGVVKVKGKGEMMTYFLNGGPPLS", "assay": "Double-reciprocal plots of type 5 AC catalytic activity against ATP", "procedure": "(§2) Hearts and striatum were dissected from the mice and membrane preparations were made as previously described. This crude membrane preparation was used in the AC assay. AC activity was measured by a modification of the method of Salomon et al. as previously described. […] Double-reciprocal plots were examined as previously described."}, "[7]": {"target": "T1, AC5 (Mus musculus, UniProt P84309)", "T1 sequence (P84309 whole entry, the tested form may be a part)": "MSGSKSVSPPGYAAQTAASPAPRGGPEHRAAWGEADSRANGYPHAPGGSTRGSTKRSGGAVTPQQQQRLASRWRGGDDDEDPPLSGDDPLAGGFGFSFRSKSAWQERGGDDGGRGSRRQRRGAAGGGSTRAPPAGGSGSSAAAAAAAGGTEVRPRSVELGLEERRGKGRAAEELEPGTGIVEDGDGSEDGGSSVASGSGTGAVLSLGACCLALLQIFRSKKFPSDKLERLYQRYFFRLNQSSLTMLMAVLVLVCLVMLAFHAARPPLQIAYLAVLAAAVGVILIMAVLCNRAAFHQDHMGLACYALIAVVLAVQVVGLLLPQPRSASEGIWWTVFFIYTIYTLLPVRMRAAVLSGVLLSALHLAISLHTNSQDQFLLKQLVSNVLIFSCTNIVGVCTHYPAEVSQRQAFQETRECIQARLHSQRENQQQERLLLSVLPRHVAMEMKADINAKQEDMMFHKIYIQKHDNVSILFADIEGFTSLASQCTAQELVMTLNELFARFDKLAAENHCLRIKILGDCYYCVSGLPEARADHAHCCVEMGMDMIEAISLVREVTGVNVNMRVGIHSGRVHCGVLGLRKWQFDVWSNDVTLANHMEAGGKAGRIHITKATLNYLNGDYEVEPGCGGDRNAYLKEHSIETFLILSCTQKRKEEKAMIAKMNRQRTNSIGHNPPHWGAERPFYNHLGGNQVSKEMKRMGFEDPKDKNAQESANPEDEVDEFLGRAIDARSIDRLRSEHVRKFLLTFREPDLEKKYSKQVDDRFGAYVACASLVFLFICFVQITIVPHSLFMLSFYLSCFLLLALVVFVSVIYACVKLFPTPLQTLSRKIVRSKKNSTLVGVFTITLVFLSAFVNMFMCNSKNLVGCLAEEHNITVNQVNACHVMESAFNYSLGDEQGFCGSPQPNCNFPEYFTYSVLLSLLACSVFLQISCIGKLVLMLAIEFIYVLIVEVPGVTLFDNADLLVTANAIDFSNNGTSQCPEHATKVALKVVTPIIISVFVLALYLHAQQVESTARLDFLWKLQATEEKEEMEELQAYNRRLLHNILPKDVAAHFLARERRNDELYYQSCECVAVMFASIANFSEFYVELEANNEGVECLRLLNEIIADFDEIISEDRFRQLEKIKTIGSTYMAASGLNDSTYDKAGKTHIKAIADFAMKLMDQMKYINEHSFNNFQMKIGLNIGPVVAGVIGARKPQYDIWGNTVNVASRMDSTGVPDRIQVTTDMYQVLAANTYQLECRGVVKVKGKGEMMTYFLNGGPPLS", "assay": "Acute ISO, milrinone or carbachol challenge in mice chronically infused with Ara-Ade", "type": "in vivo"}, "[8]": {"system": "AC5", "assay": "Acute ISO, milrinone or carbachol challenge in mice chronically infused with Ara-Ade", "type": "in vivo, mouse", "conditions": "0.05 μg/kg IV ISO, AC5Tg"}, "[9]": {"system": "Yorkshire pigs, CAO / CAR", "assay": "Pig ischemia and reperfusion model", "type": "in vivo", "procedure": "Yorkshire pigs were under anesthesia and instrumented in accordance with established procedures. After 4 days of recovery, the pigs were subjected to ischemia and reperfusion also in accordance with established procedures. At 3 hours of coronary artery reperfusion, the animals were sacrificed and the infarct size was measures with TTC staining."}, "[10]": {"system": "ERK/MEK/Bcl-2 pathway", "assay": "Western blot of hearts after chronic ISO infusion", "type": "in vivo, mouse", "experimental": "The activities of MEK1 and ERK1/2 signaling pathway were examined by measuring the phosphorylated and total forms.\nWestern blotting was conducted with commercially available antibodies, except for type 5 and type 6 AC. Western blotting for type 5 and 6 AC was performed as previously described. Protein expression was quantified by densitometry."}, "[11]": {"system": "H9C2 cells", "assay": "cAMP accumulation in H9C2 cells", "type": "cell-based", "conditions": "5 μM ISO, 3 minutes, 10 μM drug", "text": "[…] Fludarabine ((+)-2-Fluoro-9-(5-O-phosphono-β-D-arabinofuranosyl)-9H-purin-6-amine) and Cladribine (2-chloro-2′-deoxyadenosine) are anti-cancer drugs, Adefovir (Bis(2,2-dimethylpropanoyloxymethyl)[2-(6-amino-9H-purin-9-yl)ethoxymethyl]phosphonate) and Zidovudine are anti-HIV drugs. Zidovudine-TP is a metabolite of zidovudine which inhibits virus replication. TP; triphosphate. 3-Deazaadenosine, Formycin A (7-Amino-3-(β-D-ribofuranosyl)-1H-pyrazolo[4,3-d]pyrimidine), 2-Far (2-Fluoroadenosine), formycin A ((2S,3R,4S,5R)-2-(7-amino-2H-pyrazolo[5,4-e]pyramidin-3-yl-5-(hydroxymeth-yl)oxolane-3,4-diol), 2-FD (2-Fluoro-2′-deoxyadenosine) and 2′5′ ddAdo (2′5′-dideoxyadenosine) are experimental drugs.\nas §1"}, "[12]": {"system": "mice after coronary occlusion", "assay": "Coronary occlusion (post-MI) survival and echocardiography", "type": "in vivo, mouse", "experimental": "Ara-Ade (50 mg/kg/day) was chronically infused with mini-osmotic pumps implanted subcutaneously 2-3 days before the coronary occlusion. […] (b) Echocardiography was performed at 16 days after coronary occlusion."}, "[13]": {"target": "T1, AC5", "assay": "Forskolin-stimulated cAMP production in heart membrane preparations from AC5Tg", "conditions": "forskolin 50 μM", "procedure": "as §2"}, "[14]": {"conditions": "administration of 15 mg/kg/day; read-out: plasma Cmax; cited from earlier work"}}, "note": "Entries after “also recorded” stand apart in the source; their conditions may differ. Like-named read-outs stand apart in the source and are kept apart here.", "data": [{"compound": "Nc1ncnc2c1ncn2[C@@H]1O[C@H](CO)[C@@H](O)[C@@H]1O", "note": "[Ara-Ade, 9-β-D-arabinofuranosyladenine]", "values": [{"measurement": "ISO-induced decrease in LVEF (and FS)", "setting": "[1]; ISO 60 mg/kg/d 7 days, Ara-Ade 20 and 100 mg/kg/day, 2′5′ ddAdo 20 mg/kg/day", "value": "rescued LVEF and FS reduction"}, {"measurement": "ISO-induced cardiac fibrosis", "setting": "[1]; chronic ISO infusion", "value": "significantly inhibited"}, {"measurement": "ISO-induced myocardial apoptosis in vivo", "setting": "[1]; chronic ISO infusion", "value": "significantly inhibited"}, {"measurement": "ISO-induced wall thickening (DESP, DPW)", "setting": "[1]; chronic ISO infusion", "value": "neither Ara-Ade nor 2′5′ ddAdo inhibited"}, {"measurement": "LVW/BW and myocyte cross sectional area", "setting": "[1]; chronic ISO infusion", "value": "increased"}, {"measurement": "survival rate during 1-week chronic ISO", "setting": "[1]; vs vehicle", "value": "higher"}, {"measurement": "decrease in ISO-induced cAMP production / accumulation in cultured cardiac myocytes", "setting": "[2]", "value": 20, "unit": "%"}, {"measurement": "ISO-induced apoptosis in cultured cardiac myocytes", "setting": "[3]", "value": "completely abolished"}, {"measurement": "effective concentration in inhibiting apoptosis", "setting": "[3]; FIG. 3d", "value": 10, "unit": "µM"}, {"measurement": "Cmax", "setting": "[4]; 10 mg/kg, intravenously infusion for 30 min, read-out: Cmax in human", "value": 4.8, "unit": "µM"}, {"measurement": "Cmax", "setting": "[4]; human, intravenous infusion 10 mg/kg, read-out: plasma Cmax", "value": 4.8, "unit": "µM"}, {"measurement": "inhibition of cAMP production, heart membrane preparation from AC6Tg", "setting": "[5]", "value": "little inhibitory effect"}, {"measurement": "mode of inhibition with respect to ATP", "setting": "[6]", "value": "non-competitive; also recorded: un-competitive or non-competitive"}, {"measurement": "difference in LVEF between vehicle and Ara-Ade in WT", "setting": "[7]; 0.05 μg/kg IV ISO, WT", "value": "no significant difference"}, {"measurement": "LVEF after ISO vs vehicle", "setting": "[7]; Ara-Ade 20 mg/kg/day chronically infused, 0.25 μg/kg IV ISO", "value": "lower"}, {"measurement": "LVEF elevation by milrinone, vehicle vs Ara-Ade group", "setting": "[7]; milrinone infusion", "value": "no significant difference"}, {"measurement": "decrease in HR by carbachol", "setting": "[7]; vehicle vs Ara-Ade", "value": "greater in vehicle than Ara-Ade"}, {"measurement": "difference in LVEF between vehicle and Ara-Ade in AC5Tg", "setting": "[8]", "value": "significant"}, {"measurement": "infarct size in chronically instrumented conscious pigs", "setting": "[9]; delivered after CAR", "value": "reduced infarct size"}, {"measurement": "reactive hyperemia in pigs", "setting": "[9]; pig, in vivo", "value": "inhibited reactive hyperemia"}, {"measurement": "phosphorylation of Bcl-2", "setting": "[10]", "value": "significantly increased"}, {"measurement": "phosphorylation of ERK1/2 and MEK", "setting": "[10]", "value": "increased"}, {"measurement": "inhibition of cAMP accumulation in H9C2 cells", "setting": "[11]", "value": "slight inhibition"}, {"measurement": "LVEF after MI", "setting": "[12]; 16 days after coronary occlusion", "value": "prevented decrease in LVEF"}, {"measurement": "survival rate after coronary occlusion", "setting": "[12]; Ara-Ade 50 mg/kg/day from 2-3 days before occlusion, chi-square at 16 days", "value": "significant increase in survival rate"}, {"measurement": "inhibition of cAMP production, heart membrane preparation from AC5Tg", "setting": "[13]", "value": "inhibited cAMP production"}, {"measurement": "Cmax", "setting": "[14]", "value": "~10", "unit": "µM"}]}]}
